Measured values: ChEMBL document CHEMBL3085700 (J Med Chem, 2013)
Activity calls are given as the source filed them. The calls are words filed in the database; no cut-off is given here.

Tests used:
[1] = molecular target: T1, Monoacylglycerol lipase ABHD6 (Homo sapiens) (UniProt Q9BV23); assay: Inhibition of human ABHD6 overexpressed in HEK293 cells assessed as 2-AG hydrolysis at 1 uM by fluorescent glycerol assay; type: cell-based
T1 sequence (whole entry): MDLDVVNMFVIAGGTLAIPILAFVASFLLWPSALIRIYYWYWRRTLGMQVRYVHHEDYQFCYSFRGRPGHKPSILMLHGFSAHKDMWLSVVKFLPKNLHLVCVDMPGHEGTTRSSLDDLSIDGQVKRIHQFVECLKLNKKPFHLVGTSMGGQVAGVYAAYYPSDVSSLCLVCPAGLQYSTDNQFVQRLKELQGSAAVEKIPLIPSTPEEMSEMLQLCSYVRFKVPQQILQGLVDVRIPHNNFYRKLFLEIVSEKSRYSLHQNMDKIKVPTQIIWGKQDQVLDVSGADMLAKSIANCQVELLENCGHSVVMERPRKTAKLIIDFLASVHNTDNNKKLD

[2] = molecular target: T2, Monoglyceride lipase (Homo sapiens) (UniProt Q99685); assay: Inhibition of human recombinant MAGL overexpressed in HEK cells using 2-AG as substrate at 10 uM preincubated for 10 mins before substrate addition measured after 10 mins by HPLC analysis relative to control; type: cell-based; conditions: HEK293
T2 sequence (whole entry): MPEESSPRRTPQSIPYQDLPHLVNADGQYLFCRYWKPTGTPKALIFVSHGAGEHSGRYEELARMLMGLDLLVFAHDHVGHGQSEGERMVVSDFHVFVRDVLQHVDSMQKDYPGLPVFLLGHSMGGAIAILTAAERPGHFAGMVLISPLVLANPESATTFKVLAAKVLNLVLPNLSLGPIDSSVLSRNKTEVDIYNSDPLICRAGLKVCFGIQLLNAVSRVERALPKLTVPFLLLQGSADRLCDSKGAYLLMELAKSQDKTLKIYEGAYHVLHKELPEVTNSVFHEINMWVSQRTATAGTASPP

[3] = molecular target: T3, Fatty-acid amide hydrolase 1 (Homo sapiens, UniProt O00519); assay: Inhibition of human recombinant FAAH overexpressed in African green monkey COS7 cells using [3H]-anandamide as substrate preincubated for 10 mins before substrate addition measured after 10 mins by liquid scintillation counting analysis; type: cell-based, COS-7
T3 sequence (O00519 whole entry): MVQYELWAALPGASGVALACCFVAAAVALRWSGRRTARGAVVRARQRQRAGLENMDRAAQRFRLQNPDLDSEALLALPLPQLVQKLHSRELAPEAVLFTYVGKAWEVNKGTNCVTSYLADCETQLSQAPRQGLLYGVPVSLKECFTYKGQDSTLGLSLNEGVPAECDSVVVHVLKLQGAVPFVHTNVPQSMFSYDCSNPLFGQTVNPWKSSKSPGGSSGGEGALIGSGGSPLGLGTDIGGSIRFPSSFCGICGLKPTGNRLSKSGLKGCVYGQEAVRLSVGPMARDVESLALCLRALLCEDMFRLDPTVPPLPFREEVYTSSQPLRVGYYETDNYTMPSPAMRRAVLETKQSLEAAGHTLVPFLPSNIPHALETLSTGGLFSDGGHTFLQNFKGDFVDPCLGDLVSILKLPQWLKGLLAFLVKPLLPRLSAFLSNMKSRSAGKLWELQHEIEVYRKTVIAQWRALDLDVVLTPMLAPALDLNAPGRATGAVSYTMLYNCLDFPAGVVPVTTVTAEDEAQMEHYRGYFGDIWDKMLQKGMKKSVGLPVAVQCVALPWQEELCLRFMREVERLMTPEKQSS

[4] = molecular target: T4, Lysophosphatidylserine lipase ABHD12 (Homo sapiens) (UniProt Q8N2K0); assay: Inhibition of human ABHD12 overexpressed in HEK293 cells assessed as 2-AG hydrolysis at 1 uM by fluorescent glycerol assay; type: cell-based
T4 sequence (whole entry): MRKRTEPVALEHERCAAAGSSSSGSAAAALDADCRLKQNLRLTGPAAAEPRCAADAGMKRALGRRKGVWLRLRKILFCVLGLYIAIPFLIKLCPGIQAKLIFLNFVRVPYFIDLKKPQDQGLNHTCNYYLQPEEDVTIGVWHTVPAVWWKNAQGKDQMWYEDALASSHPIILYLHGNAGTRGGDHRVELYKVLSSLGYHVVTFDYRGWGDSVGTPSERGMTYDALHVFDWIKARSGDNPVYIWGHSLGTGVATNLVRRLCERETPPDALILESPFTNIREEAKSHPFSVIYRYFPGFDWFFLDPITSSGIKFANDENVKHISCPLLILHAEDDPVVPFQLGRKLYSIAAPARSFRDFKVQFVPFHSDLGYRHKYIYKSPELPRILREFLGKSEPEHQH

Monoglyceride lipase = molecular target: T5, Monoglyceride lipase (Homo sapiens, UniProt Q99685); assay: Inhibition of human recombinant MAGL overexpressed in HEK cells using 2-AG as substrate preincubated for 10 mins before substrate addition measured after 10 mins by HPLC analysis; type: cell-based, HEK293
T5 sequence (Q99685 whole entry): T2 sequence (whole entry)

[5] = molecular target: T6, Fatty-acid amide hydrolase 1 (Homo sapiens) (UniProt O00519); assay: Inhibition of human recombinant FAAH overexpressed in African green monkey COS7 cells using [3H]-anandamide as substrate at 10 uM preincubated for 10 mins before substrate addition measured after 10 mins by liquid scintillation counting analysis relative to control; type: cell-based; conditions: COS-7
T6 sequence (whole entry): T3 sequence (O00519 whole entry)

[6] = molecular target: T6, Fatty-acid amide hydrolase 1 (Homo sapiens); assay: Inhibition of human recombinant FAAH overexpressed in African green monkey COS7 cells using [3H]-anandamide as substrate at 10 to 300 uM preincubated for 10 to 60 mins by liquid scintillation counting analysis; type: cell-based; conditions: COS-7
[7] = molecular target: T6, Fatty-acid amide hydrolase 1 (Homo sapiens); assay: Inhibition of human recombinant FAAH overexpressed in African green monkey COS7 cells using [3H]-anandamide as substrate at 3 to 30 uM preincubated for 10 to 60 mins by liquid scintillation counting analysis; type: cell-based; conditions: COS-7
[8] = molecular target: T6, Fatty-acid amide hydrolase 1 (Homo sapiens); assay: Inhibition of human recombinant FAAH overexpressed in African green monkey COS7 cells using [3H]-anandamide as substrate at 10 to 100 uM preincubated for 10 to 60 mins by liquid scintillation counting analysis; type: cell-based; conditions: COS-7
[9] = molecular target: T6, Fatty-acid amide hydrolase 1 (Homo sapiens); assay: Noncompetitive inhibition of human recombinant FAAH overexpressed in African green monkey COS7 cells using anandamide as substrate assessed as decrease in Vmax of substrate hydrolysis preincubated for 10 mins before substrate addition measured after 10 mins by HPLC analysis; conditions: COS-7
[10] = molecular target: T6, Fatty-acid amide hydrolase 1 (Homo sapiens); assay: Reversible inhibition of human recombinant FAAH overexpressed in African green monkey COS7 cells using […] as substrate assessed as recovery of enzyme activity at 20 x IC50 preincubated for 60 mins followed by 500 fold dilution measured after 10 mins by HPLC analysis; type: cell-based; conditions: COS-7
[11] = molecular target: Cannabinoid receptor 1 (Rattus norvegicus) (UniProt P20272); assay: Antagonist activity at CB1 receptor in rat cerebellar membranes assessed as HU210-evoked response up to 10 uM incubated for 10 mins prior to testing by [35S]GTPgammaS binding assay; type: functional, cell membranes; conditions: Cerebellum, Membrane
[12] = molecular target: Cannabinoid receptor 2 (Homo sapiens) (UniProt P34972); assay: Agonist activity at human CB2 receptor expressed in CHO cell membranes up to 10 uM incubated for 10 mins prior to testing by [35S]GTPgammaS binding assay; type: functional
[13] = molecular target: Cannabinoid receptor 1 (Rattus norvegicus) (UniProt P20272); assay: Agonist activity at CB1 receptor in rat cerebellar membranes up to 10 uM incubated for 10 mins prior to testing by [35S]GTPgammaS binding assay; type: functional, cell membranes; conditions: Cerebellum, Membrane
[14] = molecular target: T7, Prostaglandin G/H synthase 1 (Ovis aries) (UniProt P05979); assay: Inhibition of ovine COX-1 using arachidonic acid as substrate assessed as oxygen consumption at 30 uM measured within 10 to 50 secs
T7 sequence (whole entry): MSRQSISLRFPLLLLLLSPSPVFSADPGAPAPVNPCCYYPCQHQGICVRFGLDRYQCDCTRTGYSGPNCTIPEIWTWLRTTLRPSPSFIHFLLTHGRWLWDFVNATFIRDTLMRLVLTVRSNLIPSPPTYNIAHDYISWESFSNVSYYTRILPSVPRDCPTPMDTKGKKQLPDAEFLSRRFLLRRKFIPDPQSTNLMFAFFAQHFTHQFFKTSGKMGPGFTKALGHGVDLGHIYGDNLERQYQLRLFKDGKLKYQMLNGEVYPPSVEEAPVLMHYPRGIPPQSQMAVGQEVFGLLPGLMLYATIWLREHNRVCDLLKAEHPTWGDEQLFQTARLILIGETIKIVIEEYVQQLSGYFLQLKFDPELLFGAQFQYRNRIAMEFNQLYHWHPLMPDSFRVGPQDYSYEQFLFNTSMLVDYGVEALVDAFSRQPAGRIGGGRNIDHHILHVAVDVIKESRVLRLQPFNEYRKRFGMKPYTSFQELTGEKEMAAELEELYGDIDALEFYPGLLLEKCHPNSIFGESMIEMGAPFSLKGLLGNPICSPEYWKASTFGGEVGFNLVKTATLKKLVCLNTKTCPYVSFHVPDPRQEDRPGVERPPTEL

Cannabinoid receptor 1 (Rattus norvegicus), sequence (P20272 whole entry): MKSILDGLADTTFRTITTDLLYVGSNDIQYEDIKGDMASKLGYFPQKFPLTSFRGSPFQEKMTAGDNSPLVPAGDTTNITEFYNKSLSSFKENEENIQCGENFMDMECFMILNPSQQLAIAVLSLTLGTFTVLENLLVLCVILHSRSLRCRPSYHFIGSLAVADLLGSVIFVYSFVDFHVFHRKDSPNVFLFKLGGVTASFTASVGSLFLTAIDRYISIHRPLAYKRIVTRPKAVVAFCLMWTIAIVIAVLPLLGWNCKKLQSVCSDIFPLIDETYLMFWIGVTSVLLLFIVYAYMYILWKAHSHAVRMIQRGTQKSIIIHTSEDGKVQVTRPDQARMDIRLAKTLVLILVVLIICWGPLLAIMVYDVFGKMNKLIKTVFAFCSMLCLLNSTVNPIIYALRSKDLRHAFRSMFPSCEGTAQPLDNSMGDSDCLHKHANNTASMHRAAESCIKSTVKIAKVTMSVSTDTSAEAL
Cannabinoid receptor 2 (Homo sapiens), sequence (P34972 whole entry): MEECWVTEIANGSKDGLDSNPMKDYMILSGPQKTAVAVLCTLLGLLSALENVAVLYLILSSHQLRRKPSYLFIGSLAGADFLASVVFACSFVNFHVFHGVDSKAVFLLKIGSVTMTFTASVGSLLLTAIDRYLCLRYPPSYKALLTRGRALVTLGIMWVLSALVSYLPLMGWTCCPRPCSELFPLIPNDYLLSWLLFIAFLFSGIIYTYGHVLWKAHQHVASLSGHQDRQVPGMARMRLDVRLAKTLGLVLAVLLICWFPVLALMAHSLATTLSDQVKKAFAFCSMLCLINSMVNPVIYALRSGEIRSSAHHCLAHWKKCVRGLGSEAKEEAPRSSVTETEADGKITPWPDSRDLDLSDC

SMILES	inhibition [1]	inhibition [2]	IC50 ([3]; read-out: IC50) [nM]	IC50 ([3]; read-out: pIC50 (converted)) [nM]	inhibition [4]	other results
COc1nn([C@H](C)c2ccc(-c3ccccc3)cc2)c(=O)o1	inactive	49%	3000	2880	inactive	–
COc1nn(Cc2ccc(CC(C)C)cc2)c(=O)o1	inactive	–	91	89.1	inactive	IC50 (Monoglyceride lipase; read-out: IC50): 1300 nM
COc1nn(Cc2ccccc2Oc2ccccc2)c(=O)o1	inactive	inactive	6300	6310	inactive	–
COc1nn(Cc2ccc(Oc3ccccc3)cc2)c(=O)o1	inactive	–	–	100	inactive	IC50 (Monoglyceride lipase; read-out: IC50): 400 nM; IC50 ([3]; cos-7, read-out: IC50): 100 nM
COc1nn(C(C)c2ccc(Oc3ccccc3)cc2)c(=O)o1 (stereo not given)	inactive	–	34	33.9	inactive	IC50 (Monoglyceride lipase; read-out: IC50): 2000 nM
COc1nn(C(C)c2cccc(-c3ccccc3)c2)c(=O)o1 (stereo not given)	inactive	42%	1200	1170	inactive	–
COc1nn(C(C)c2ccc(-c3ccccc3)cc2)c(=O)o1 (racemic)	inactive	34%	48	46.8	inactive	–
COc1nn(Cc2cccc(Oc3ccccc3)c2)c(=O)o1	inactive	15%	980	977	inactive	–
COc1nn(C(c2ccccc2)c2ccccc2)c(=O)o1	inactive	inactive	–	–	inactive	inhibition [5]: inactive
COc1nn([C@H](C)c2ccc(N(c3ccccc3)c3ccccc3)cc2)c(=O)o1	inactive	–	6300	6170	inactive	IC50 (Monoglyceride lipase; read-out: IC50): 350 nM; IC50 (Monoglyceride lipase; read-out: pIC50 (converted)): 339 nM
COc1nn(C(C)c2ccc(CC(C)C)cc2)c(=O)o1 (racemic)	inactive	48%	23	22.9	inactive	–
COc1nn([C@@H](C)c2ccc(N(c3ccccc3)c3ccccc3)cc2)c(=O)o1	inactive	41%	98	100	inactive	inhibition [6]: Active; inhibition [7]: Active; inhibition [8]: Active; inhibition [9]: Dose-dependent effect; inhibition [10]: Active
COc1nn(Cc2ccccc2)c(=O)o1	inactive	inactive	–	–	inactive	inhibition [5]: inactive
COc1nn([C@@H](C)c2ccc(-c3ccccc3)cc2)c(=O)o1	inactive	18%	23	23.4	inactive	Activity [11]: inactive; inhibition [6]: Active; inhibition [7]: Active; inhibition [8]: Active; inhibition [9]: Dose-dependent effect; Activity [12]: inactive; Activity [13]: inactive; inhibition [10]: Active
COc1nn(Cc2cccc(-c3ccccc3)c2)c(=O)o1	inactive	32%	–	–	inactive	inhibition [5]: 46%
COc1nn(Cc2ccc(-c3ccccc3)cc2)c(=O)o1	inactive	–	160	162	inactive	IC50 (Monoglyceride lipase; read-out: IC50): 1600 nM
COc1nn(Cc2ccc(N(c3ccccc3)c3ccccc3)cc2)c(=O)o1	inactive	–	470	457	inactive	IC50 (Monoglyceride lipase; read-out: IC50): 260 nM
COc1nn(C(C)c2cccc(Oc3ccccc3)c2)c(=O)o1 (stereo not given)	inactive	14%	5200	5250	inactive	–
CC(C(=O)O)c1ccc(-c2ccccc2)c(F)c1 (stereo not given)	–	–	–	–	–	inhibition [14]: Active
COc1nn(C(C)C)c(=O)o1	inactive	6%	–	–	inactive	inhibition [5]: 12%
COc1nn(C(C)c2ccccc2)c(=O)o1 (stereo not given)	inactive	inactive	6000	6030	inactive	–
COc1nn(C2CCCCC2)c(=O)o1	inactive	inactive	–	–	inactive	inhibition [5]: 40%
